Data on 7 molecules can be found in publication PMC7948418, “Genetic and biased agonist-mediated reductions in β-arrestin recruitment prolong cAMP signaling at glucagon family receptors” (The Journal of Biological Chemistry, 2020).

Square brackets hold non-standard residues; d marks the D form. Ends that are not written are not given here.

The target of assay [1] is T1, GLP-1R (Homo sapiens, UniProt P43220). Nature of the assay: cAMP response (HTRF) in PathHunter CHO-GLP-1R cells. The conditions noted are these: read-out: cAMP Emax (% GLP-1). The format is cell-based.
T1 sequence (P43220 24-463): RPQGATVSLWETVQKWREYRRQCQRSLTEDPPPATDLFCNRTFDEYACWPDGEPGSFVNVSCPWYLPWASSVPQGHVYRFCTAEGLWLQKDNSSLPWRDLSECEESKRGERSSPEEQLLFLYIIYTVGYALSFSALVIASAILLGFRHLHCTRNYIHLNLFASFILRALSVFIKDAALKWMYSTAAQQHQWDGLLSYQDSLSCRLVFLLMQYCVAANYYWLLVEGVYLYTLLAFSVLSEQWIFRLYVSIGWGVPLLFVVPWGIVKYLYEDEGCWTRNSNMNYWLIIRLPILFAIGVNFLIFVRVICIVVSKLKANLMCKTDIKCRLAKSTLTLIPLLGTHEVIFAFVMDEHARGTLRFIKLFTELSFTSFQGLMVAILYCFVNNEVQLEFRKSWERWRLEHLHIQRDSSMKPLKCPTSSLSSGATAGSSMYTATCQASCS
The target in assay [2] is T1, GLP-1R. Nature of the assay: β-arrestin-2 recruitment by enzyme fragment complementation (PathHunter) CHO-GLP-1R. Type of assay: cell-based. The following applies: read-out: βarr2 Emax (% GLP-1).
Assay [3] addresses T2, GIPR (Homo sapiens, UniProt P48546).
T2 sequence (P48546 22-466): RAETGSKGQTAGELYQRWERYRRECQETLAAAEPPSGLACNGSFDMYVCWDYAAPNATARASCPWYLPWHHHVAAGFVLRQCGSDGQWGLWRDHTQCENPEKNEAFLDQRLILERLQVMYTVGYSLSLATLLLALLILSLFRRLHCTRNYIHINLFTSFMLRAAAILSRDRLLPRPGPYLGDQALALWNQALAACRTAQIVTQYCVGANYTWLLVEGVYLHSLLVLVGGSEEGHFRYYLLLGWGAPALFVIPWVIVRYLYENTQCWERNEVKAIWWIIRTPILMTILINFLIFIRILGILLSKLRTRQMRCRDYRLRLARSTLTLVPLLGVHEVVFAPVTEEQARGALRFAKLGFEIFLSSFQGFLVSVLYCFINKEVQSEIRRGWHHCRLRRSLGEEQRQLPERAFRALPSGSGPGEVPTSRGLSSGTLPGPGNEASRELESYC
Nature of the assay: β-arrestin-2 recruitment by enzyme fragment complementation (PathHunter) CHO-GIPR. Type of assay: cell-based. The conditions noted are these: for Emax: read-out: βarr2 Emax (% GIP).

Assay [4] has as its target T2, GIPR. The experiment in a line: cAMP response (HTRF) in PathHunter CHO-GIPR cells. Type of assay: cell-based. The conditions noted are these: for Emax: read-out: cAMP Emax (% GIP).
The target of the next assay is GLP-1R-SmBiT (UniProt P43220). The experiment in a line: split reporter (BiFC, NanoBiT); NanoBiT complementation in HEK293T cells co-transfected with receptor-SmBiT and LgBiT-tagged effector; furimazine; 37 °C; baseline 5 min, then 100 nM cognate agonist (GLP-1, GIP or GCG) or vehicle, luminescence over 30 min, normalised to baseline and vehicle.
Chain of GLP-1R-SmBiT (P43220 24-463): as the sequence (P43220 24-463) above
The target in assay [5] is T3, GIPR-SmBiT (UniProt P48546).
T3 sequence: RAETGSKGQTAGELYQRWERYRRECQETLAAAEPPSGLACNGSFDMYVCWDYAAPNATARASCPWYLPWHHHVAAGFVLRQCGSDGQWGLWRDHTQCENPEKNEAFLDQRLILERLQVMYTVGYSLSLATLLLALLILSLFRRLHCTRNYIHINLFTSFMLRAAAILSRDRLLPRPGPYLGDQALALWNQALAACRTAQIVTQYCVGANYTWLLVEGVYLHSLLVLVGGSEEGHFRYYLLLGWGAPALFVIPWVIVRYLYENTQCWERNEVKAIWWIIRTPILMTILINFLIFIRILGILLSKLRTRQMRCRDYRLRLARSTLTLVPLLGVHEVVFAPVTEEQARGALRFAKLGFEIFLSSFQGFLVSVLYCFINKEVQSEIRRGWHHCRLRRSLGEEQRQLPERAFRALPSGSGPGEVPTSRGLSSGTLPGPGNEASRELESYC
Described as above.

Assay [6] deals with T3, GIPR-SmBiT.
The target of assay [7] is T3, GIPR-SmBiT. This is another data set of the same source.

The Emax is the maximal effect, on the per cent scale that the assay sets. One may read the EC50 as the midpoint of the concentration-response curve. High values mean a less potent agent, low ones a more potent agent.

As to `CC[C@H](C)[C@H](NC(=O)[C@H](Cc1ccccc1)NC(=O)[C@H](CCC(=O)O)NC(=O)[C@H](CCCCN)NC(=O)[C@H](C)NC(=O)[C@H](C)NC(=O)[C@H](CCC(N)=O)NC(=O)CNC(=O)[C@H](CCC(=O)O)NC(=O)[C@H](CC(C)C)NC(=O)[C@H](Cc1ccc(O)cc1)NC(=O)[C@H](CO)NC(=O)[C@H](CO)NC(=O)[C@@H](NC(=O)[C@H](CC(=O)O)NC(=O)[C@H](CO)NC(=O)[C@@H](NC(=O)[C@H](Cc1ccccc1)NC(=O)[C@@H](NC(=O)CNC(=O)[C@H](CCC(=O)O)NC(=O)CNC(=O)[C@@H](N)Cc1c[nH]cn1)[C@@H](C)O)[C@@H](C)O)C(C)C)C(=O)N[C@@H](C)C(=O)N[C@@H](Cc1c[nH]c2ccccc12)C(=O)N[C@@H](CC(C)C)C(=O)N[C@H](C(=O)N[C@@H](CCCCN)C(=O)NCC(=O)N[C@@H](CCCNC(=N)N)C(N)=O)C(C)C` [GLP-1-Gly2], the Emax stood at 95 ± 4% on GLP-1R [1] and 93 ± 3% at GLP-1R [2].
Turning to “YA[dQ]GTFISDYSIAMDKIHQQDFVNWLLAQKGKKNDWKHNITQ [GIP-dGln3]”, on GIPR [3], a half-maximal response (EC50) required 316 nM and the Emax turned out to be 23 ± 1%. At GIPR [4], the EC50 is 25.1 nM and the Emax came out at 110 ± 4%.
On to “FAEGTFISDYSIAMDKIHQQDFVNWLLAQKGKKNDWKHNITQ [GIP-Phe1]”, for which the EC50 is 1000 nM at GIPR [3] and 2 nM at GIPR [4]. In addition, the Emax at GIPR [3] amounted to 65 ± 3%; on GIPR [4] it was 99 ± 3%.
In the case of LgBiT-mini-Gs, the t1/2 of ligand-induced mini-Gs recruitment with GLP-1R-SmBiT was found to be 1.5 min; in the assay with GIPR-SmBiT [5] it was 7.1 min.
“YGEGTFISDYSIAMDKIHQQDFVNWLLAQKGKKNDWKHNITQ [GIP-Gly2]”: on GIPR [3], the EC50 was 316 nM and the Emax was found to be 66 ± 7%. Also, on GIPR [4], a half-maximal effect (EC50) was put at 0.794 nM and the Emax turned out to be 100 ± 4%.
As to `CC[C@H](C)[C@H](NC(=O)[C@H](Cc1ccccc1)NC(=O)[C@H](CCC(=O)O)NC(=O)[C@H](CCCCN)NC(=O)[C@H](C)NC(=O)[C@H](C)NC(=O)[C@H](CCC(N)=O)NC(=O)CNC(=O)[C@H](CCC(=O)O)NC(=O)[C@H](CC(C)C)NC(=O)[C@H](Cc1ccc(O)cc1)NC(=O)[C@H](CO)NC(=O)[C@H](CO)NC(=O)[C@@H](NC(=O)[C@H](CC(=O)O)NC(=O)[C@H](CO)NC(=O)[C@@H](NC(=O)[C@H](Cc1ccccc1)NC(=O)[C@@H](NC(=O)CNC(=O)[C@@H](CCC(N)=O)NC(=O)[C@H](C)NC(=O)[C@@H](N)Cc1c[nH]cn1)[C@@H](C)O)[C@@H](C)O)C(C)C)C(=O)N[C@@H](C)C(=O)N[C@@H](Cc1c[nH]c2ccccc12)C(=O)N[C@@H](CC(C)C)C(=O)N[C@H](C(=O)N[C@@H](CCCCN)C(=O)NCC(=O)N[C@@H](CCCNC(=N)N)C(N)=O)C(C)C` [GLP-1-dGln3], the Emax on GLP-1R [1] (30-min stimulation, 37 °C, no phosphodiesterase inhibitors, 4-parameter fit, mean ± SEM, n = 5) came out at 106 ± 5%; at GLP-1R [2] (30 min at 37 °C, 4-parameter fit, mean ± SEM, n = 5), 60 ± 4%.

B1: GIP(1–42) (peptide)
peptide: YAEGTFISDYSIAMDKIHQQDFVNWLLAQKGKKNDWKHNITQ
On to B1, for which, in the assay with GIPR-SmBiT [6], the cAMP (HTRF), Log EC50, 10 min stimulation, wildtype HEK293 cells transiently transfected with SNAP-GIPR is -9.4 Log EC50 (M); the cAMP (HTRF), Log EC50, 10 min stimulation, β-arrestin-1/2 knockout HEK293 cells transiently transfected with SNAP-GIPR is -9.1 Log EC50 (M); the cAMP (HTRF), Log EC50, 60 min stimulation, wildtype HEK293 cells transiently transfected with SNAP-GIPR was -9.6 Log EC50 (M); the cAMP (HTRF), Log EC50, 60 min stimulation, β-arrestin-1/2 knockout HEK293 cells transiently transfected with SNAP-GIPR is -9.7 Log EC50 (M). Besides, in the assay with GIPR-SmBiT [7], the cytoplasmic PKA activation (AKAR4-NES FRET, AUC), Log EC50, wildtype HEK293 cells co-transfected with SNAP-GIPR is -10.1 Log EC50 (M) and the cytoplasmic PKA activation (AKAR4-NES FRET, AUC), Log EC50, β-arrestin-1/2 knockout HEK293 cells co-transfected with SNAP-GIPR is -10.9 Log EC50 (M).
